Target: T1, ECD2 of ABCA1 (Homo sapiens, UniProt O95477)
T1 construct: The proteins used in these experiments were Extra-Cellular Domain 1 (ECD1) of ABCA1 and Extra-Cellular Domain 2 (ECD2); purchased Biomatick
Experiment: Microscale thermophoresis (MST) binding to ECD2
Method: Microscale thermophoresis (MST) measurements. MST measurements of the binding of the HTS hits to the extracellular domain (ECD) of ABCA1 were performed by two complimentary methods utilizing either fluorescently labeled proteins or the endogenous fluorescence of unlabeled proteins. This was pursued as follows:
(i) MST utilizing labeled proteins: The proteins used in these experiments were Extra-Cellular Domain 1 (ECD1) of ABCA1 and Extra-Cellular Domain 2 (ECD2) which were provided by the manufacturer (Biomatick) at a concentration of 7.1 μM. The buffers of protein samples were exchanged on a desalting PD-10 column to MST labelling buffer (Nanotemper Technologies, NT.115). […] The concentrations of the labeled protein samples solutions were determined by Spectrophotometer (Carey 60) at 280 nm and 650 nm and adjusted to a final concentration 7.1 μM, aliquoted in 30 μl and stored at −80° C. for further use. Protein-compound interactions were analyzed by microscale thermophoresis. […] All dissociation constants (KD) were calculated to a binding model assuming a 1:1 stoichiometry per binding partner. […]
These experiments employed the MST ligand binding to protein assay (FIG. 13 and EXAMPLE 1). […] Two complementary MST tests were performed, in which either the proteins were labeled with a fluorescence moiety or the endogenous fluorescence of the unlabeled proteins was monitored).

T1 sequence (O95477 1372-1656 limits assumed): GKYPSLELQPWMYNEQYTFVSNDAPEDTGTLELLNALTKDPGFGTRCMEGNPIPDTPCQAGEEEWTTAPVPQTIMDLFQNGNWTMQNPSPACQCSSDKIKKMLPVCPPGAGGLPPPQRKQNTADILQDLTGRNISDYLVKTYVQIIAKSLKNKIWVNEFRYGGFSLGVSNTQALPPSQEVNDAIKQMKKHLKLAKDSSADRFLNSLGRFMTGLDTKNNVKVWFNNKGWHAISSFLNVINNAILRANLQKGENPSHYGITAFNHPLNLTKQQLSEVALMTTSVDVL

Structure (SMILES) | MST binding to ECD2
Cc1nn(CC(=O)c2ccc(Br)s2)c(C)c1[N+](=O)[O-] [Hit #3] | do not bind at all
CC(C)(C)C(=O)COC(=O)c1ccccc1SCc1cc(-c2ccco2)on1 [Hit #4] | do not bind at all

Reference: US20230103965A1, “NOVEL ACTIVATORS OF THE LIPIDATING TRANSPORTER ATP BINDING CASSETTE PROTEIN TYPE 1 (AB-CA1) AND THERAPEUTIC USES THEREOF” (RAMOT AT TEL-AVIV UNIVERSITY LTD., priority 2020, published 2023)
